From paper PMC11375011, “Inducible auto-phosphorylation regulates a widespread family of nucleotidyltransferase toxins” (Nature Communications, 2024)

Tests used:
[1] = target: T1, MenA1:MenT1 (MenT1 in the presence of MenA1) (Mycobacterium tuberculosis, UniProt L7N686)
T1 construct: gene Rv0078A

[2] = target: T1, MenA1:MenT1 (MenT1 in the presence of MenA1); remark: listed apart in the source

| SMILES | ΔTm [1] | phosphorylation assay of MenT1 [2] |
| --- | --- | --- |
| Nc1ccn([C@@H]2O[C@H](COP(=O)(O)OP(=O)(O)OP(=O)(O)O)[C@@H](O)[C@H]2O)c(=O)n1 [CTP] | no significant differences between mean ΔTm values were observed when incubated with any | – |
| Nc1ncnc2c1ncn2[C@@H]1O[C@H](COP(=O)(O)OP(=O)(O)OP(=O)(O)O)[C@@H](O)[C@H]1O [ATP] | no significant differences between mean ΔTm values were observed when incubated with any | – |
| Nc1ncnc2c1ncn2[C@@H]1O[C@H](COP(=O)(O)OP(=O)(O)O)[C@@H](O)[C@H]1O [ADP] | – | Co-incubation of MenT1, MenA1 and MgCl2 with ADP, but not AMP or AMP-PNP, supported phosphorylation |
| O=c1ccn([C@@H]2O[C@H](COP(=O)(O)OP(=O)(O)OP(=O)(O)O)[C@@H](O)[C@H]2O)c(=O)[nH]1 [UTP] | no significant differences between mean ΔTm values were observed when incubated with any | – |
| Nc1nc2c(ncn2[C@@H]2O[C@H](COP(=O)(O)OP(=O)(O)OP(=O)(O)O)[C@@H](O)[C@H]2O)c(=O)[nH]1 [GTP] | no significant differences between mean ΔTm values were observed when incubated with any | – |
